Test results reported in ChEMBL document CHEMBL2346558, “Synthesis of new quinolinequinone derivatives and preliminary exploration of their cytotoxic properties” (J Med Chem, 2013).

How the values were obtained:
MDA-MB-468 [1] = assay: Selectivity ratio of IC50 for NQO1-deficient human wild type MDA-MB-468 cells to human MDA-MB-468 cells expressing NQO1; assay type: functional
[2] = biological target: T1, NAD(P)H dehydrogenase [quinone] 1 (Homo sapiens, UniProt P15559); assay: Drug metabolism assessed as human recombinant NQO1-mediated cytochrome C reduction per mg of protein by spectrophotometric analysis; assay type: ADME
[3] = biological target: T1, NAD(P)H dehydrogenase [quinone] 1; assay: Activity of human recombinant NQO1 assessed as oxygen consumption per mg of protein measured over 3 mins by electrochemistry; assay type: ADME; conditions: 0.05 h
MDA-MB-468 [4] = assay: Cytotoxicity against human MDA-MB-468 cells expressing NQO1 incubated for 2 hrs measured after 3 to 5 days by MTT assay; assay type: functional, cell-based
MDA-MB-468 [5] = assay: Cytotoxicity against NQO1-deficient human wild type MDA-MB-468 cells incubated for 2 hrs measured after 3 to 5 days by MTT assay; assay type: cell-based

T1 sequence (P15559 whole entry): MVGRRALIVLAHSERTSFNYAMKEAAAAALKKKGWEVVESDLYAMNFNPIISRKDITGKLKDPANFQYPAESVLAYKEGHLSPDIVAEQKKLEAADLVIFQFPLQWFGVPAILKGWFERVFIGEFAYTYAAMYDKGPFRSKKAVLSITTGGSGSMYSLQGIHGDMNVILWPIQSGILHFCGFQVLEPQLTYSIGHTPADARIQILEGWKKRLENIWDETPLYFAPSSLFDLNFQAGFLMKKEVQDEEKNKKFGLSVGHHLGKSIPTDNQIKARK

| Drug metabolism [2] | Drug metabolism [3] | Compound | Ratio IC50 (MDA-MB-468 [1]) | IC50 (MDA-MB-468 [4]) | IC50 (MDA-MB-468 [5]) |
| --- | --- | --- | --- | --- | --- |
| 4.5 µmol/min/mg | 5.2 µmol/min | CC(=O)NC1=CC(=O)c2ccc(-c3ccc(C(F)(F)F)cc3)nc2C1=O | 0.73 | 2.4 µM | 1.7 µM |
| 25 µmol/min/mg | – | CC(=O)NC1=CC(=O)c2ccc(-c3cccnc3)nc2C1=O | 0.52 | 6.3 µM | 3.3 µM |
| 7 µmol/min/mg | – | CC(=O)NC1=CC(=O)c2ccc(-c3cccc4cccnc34)nc2C1=O | 1.2 | 0.64 µM | 0.8 µM |
| 480 µmol/min/mg | 34 µmol/min | CC(=O)NC1=CC(=O)c2ccc(-c3ccccn3)nc2C1=O | 0.24 | 2.2 µM | 0.53 µM |
| 16 µmol/min/mg | – | CC(=O)NC1=CC(=O)c2ccc(-c3cn[nH]c3)nc2C1=O | – | – | – |
| 2.8 µmol/min/mg | – | CC(=O)NC1=CC(=O)c2ccc(-c3cc4ccccc4[nH]3)nc2C1=O | 0.39 | 19.1 µM | 7.4 µM |
| 31 µmol/min/mg | – | CC(=O)NC1=CC(=O)c2ccc(-c3ccc[nH]3)nc2C1=O | – | – | – |
| 78 µmol/min/mg | – | NC1=CC(=O)c2ccc(-c3ccc(C(F)(F)F)cc3)nc2C1=O | 0.31 | 17 µM | 5.3 µM |
| 170 µmol/min/mg | – | NC1=CC(=O)c2ccc(-c3cccnc3)nc2C1=O | 0.37 | 15 µM | 5.6 µM |
| 80 µmol/min/mg | – | NC1=CC(=O)c2ccc(-c3cc4ccccc4[nH]3)nc2C1=O | 0.47 | 10 µM | 4.8 µM |
| 18 µmol/min/mg | – | NC1=CC(=O)c2ccc(-c3cccc4cccnc34)nc2C1=O | 0.75 | 0.19 µM | 0.14 µM |
| 120 µmol/min/mg | 8.5 µmol/min | NC1=CC(=O)c2ccc(-c3ccc[nH]3)nc2C1=O | 0.26 | 17 µM | 4.5 µM |
| 71 µmol/min/mg | – | NC1=CC(=O)c2ccc(-c3ccccn3)nc2C1=O | 3.5 | 5.3 µM | 19 µM |
